In brackets after ≈: the same amount, converted by molar mass.
Legend:
Type in all cases: cell-based
[1] = system: Candida albicans 90028; test: In vitro antifungal assay (Example IX), microdilution broth, MIC; settings: minimum inhibitory concentration (≥50% inhibition), 35° C., 40-48 h, RPMI1640
Method in brief: (§1)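 CLSI broth microdilution in RPMI1640 with 2.5×10^3 cells/mL and final compound concentrations of 2-0.0019 μg/mL (1% DMSO). C. albicans 90028 plates were incubated at 35° C. for 40-48 h and C. neoformans H99 for 72 h. MIC was read as minimum inhibitory concentration, verified at 600 nm.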

[2] = system: Cryptococcus neoformans H99; test: as above; settings: minimum inhibitory concentration (≥50% inhibition), 35° C., 72 h, RPMI1640
Method in brief: as §1

[3] = system: Rhizomucor pusillus 46342; test: In vitro antifungal assay (Example IX), microdilution broth, MEC; settings: minimum effective concentration (shortening of hyphae), 35° C., 40-48 h, RPMI1640
Method in brief: (§2)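 Spore suspensions of A. fumigatus and R. pusillus adjusted to 1-2×10^4 spores/mL in RPMI1640 and exposed to compound dilutions prepared in DMSO, by broth microdilution. MEC taken as the lowest concentration shortening hyphae versus DMSO control wells, read as for echinocandins.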

[4] = system: Aspergillus fumigatus MYA3626; test: as above; settings: minimum effective concentration (shortening of hyphae), 35° C., 40-48 h, RPMI1640
Method in brief: as §2

[5] = system: Cryptococcus gattii; test: In vitro antifungal assay (Example IX), microdilution broth, MIC; settings: minimum inhibitory concentration (≥50% inhibition), 35° C., 72 h (Cryptococcus), RPMI1640
Procedure: Preparation of Fungal Suspension. C. albicans 90028 and C. neoformans H99 strains were streaked from frozen stocks at −80° C. onto Sabouraud Dextrose Agar (SDA) plates. These were allowed to grow for 24 h (C. albicans) and 48 h (C. neoformans) at 35° C. before using them in the assay. 5-6 individual colonies were picked and diluted into sterile water to obtain a fungal suspension. The cell density of the suspension was determined and the culture diluted with RPMI1640 medium to obtain a fungal suspension of 2.5×10^3 cells/mL. The suspension was used in the MIC measurement as described below.
Preparation of Compound Stocks and Intermediate Dilutions: The compounds were weighed and DMSO was added to prepare a 10 mg/mL stock. The solutions were mixed by vortexing and sonication at 37° C. for 5-10 mins. The resulting solutions were sterile filtered using a PTFE filter, and aliquoted (12 μL or as needed) and stored at −20° C. Intermediate compound dilutions were prepared in sterile polypropylene tubes in 100% DMSO. The compound stock solution was first diluted in DMSO to obtain a concentration of […] to 0.19 μg/mL.
MIC/MEC Measurement: 99 μL 1 of the fungal suspension in RPMI1640 prepared as above was added to each well of a 96-well round bottom assay plate. 1 μL of the intermediate compound dilutions (200-0.19 μg/mL) were added to wells of the plate. This led to a 100-fold dilution of the intermediate dilutions resulting in a final compound concentration of 2-0.0019 μg/mL in the plate. 1 μL of DMSO was added to “No drug” control wells. The solutions were mixed by shaking on a plate shaker for 10 mins and plates incubated at 35° C. for 40-48 h (C. albicans, A. fumigatus, R. pusillus) and 72 h (Cryptococcus). […] This was validated by thorough mixing and reading at 600 nm on a microplate reader. The minimum concentration that led to shortening of hyphae as compared to hyphal growth in DMSO control wells was determined as the minimum effective concentration (MEC) for A. fumigatus and R. pusillus (as read for echinocandins). The use of the MIC and MEC endpoints against yeasts and molds, respectively has been described by Pfaller M A, Duncanson F, Messer S A, Moet G J, Jones R N, Castanheira M. Antimicrob Agents Chemother. 2011. 55(11):5155-8. In vitro activity of a novel broad-spectrum antifungal, E1210, tested against Aspergillus spp. determined by CLSI and EUCAST broth microdilution methods. Results are shown in Table 2, and the letters indicate the following ranges in μg/mL: […]

| Structure (SMILES) | MIC [1] [µg/mL] | MIC [2] [µg/mL] | MIC [5] [µg/mL] | minimal effective concentration [3] [µg/mL] | minimal effective concentration [4] [µg/mL] |
| --- | --- | --- | --- | --- | --- |
| Nc1ncccc1-c1cc(Cc2ccc(OCc3cccc(F)c3)cc2)no1 [Example 138, 3-(3-(4-((3-fluorobenzyl)oxy)benzyl)isoxazol-5-yl)pyridin-2-amine] | 0.01 to 0.1 (≈ 0.0266 to 0.266 µM) | 0.01 to 0.1 (≈ 0.0266 to 0.266 µM) | ≤ 0.01 | 0.1 to 1 | 0.01 to 0.1 |
| Nc1ncccc1-c1cc(Cc2ccc(OCc3ccncc3)cc2)no1 [Example 139, 3-(3-(4-(pyridin-4-ylmethoxy)benzyl)isoxazol-5-yl)pyridin-2-amine] | 0.01 to 0.1 (≈ 0.0279 to 0.279 µM) | 0.01 to 0.1 (≈ 0.0279 to 0.279 µM) | ≤ 0.01 | > 1 | 0.1 to 1 |
| Nc1ncccc1-c1cc(Cc2ccc(OCc3ccccn3)cc2)no1 [Example 140, 3-(3-(4-(pyridin-2-ylmethoxy)benzyl)isoxazol-5-yl)pyridin-2-amine] | ≤ 0.01 | 0.01 to 0.1 (≈ 0.0279 to 0.279 µM) | 0.01 to 0.1 (≈ 0.0279 to 0.279 µM) | 0.1 to 1 | 0.01 to 0.1 |
| Nc1ncccc1-c1cc(Cc2ccc(OCc3ccccc3F)cc2)no1 [Example 141, 3-(3-(4-((2-fluorobenzyl)oxy)benzyl)isoxazol-5-yl)pyridin-2-amine] | 0.01 to 0.1 (≈ 0.0266 to 0.266 µM) | 0.01 to 0.1 (≈ 0.0266 to 0.266 µM) | 0.01 to 0.1 (≈ 0.0266 to 0.266 µM) | 0.1 to 1 | 0.01 to 0.1 |
| Nc1ncccc1-c1cc(Cc2ccc(Oc3ccccc3)nc2)no1 [Example 143, 3-(3-((6-phenoxypyridin-3-yl)methyl)isoxazol-5-yl)pyridin-2-amine] | 0.1 to 1 (≈ 0.29 to 2.9 µM) | 0.01 to 0.1 (≈ 0.029 to 0.29 µM) | ≤ 0.01 | 0.1 to 1 | 0.01 to 0.1 |
| Nc1ncccc1-c1cc(Cc2ccc(Nc3ccccc3)cc2)no1 [Example 144, 3-(3-(4-(phenylamino)benzyl)isoxazol-5-yl)pyridin-2-amine] | 0.01 to 0.1 (≈ 0.0292 to 0.292 µM) | 0.01 to 0.1 (≈ 0.0292 to 0.292 µM) | 0.01 to 0.1 (≈ 0.0292 to 0.292 µM) | 0.1 to 1 | 0.01 to 0.1 |
| Nc1ncccc1-c1cc(Cc2ccnc(OCCc3cccc(F)c3)c2)no1 [Example 146, 3-(3-((2-(3-fluorophenethoxy)pyridin-4-yl)methyl)isoxazol-5-yl)pyridin-2-amine] | 0.1 to 1 (≈ 0.256 to 2.56 µM) | 0.1 to 1 (≈ 0.256 to 2.56 µM) | 0.1 to 1 (≈ 0.256 to 2.56 µM) | > 1 | > 1 |
| Nc1ncccc1-c1cc(Cc2ccnc(OCc3ccccc3)c2)no1 [Example 148, 3-(3-((2-(benzyloxy)pyridin-4-yl)methyl)isoxazol-5-yl)pyridin-2-amine] | 0.01 to 0.1 (≈ 0.0279 to 0.279 µM) | 0.01 to 0.1 (≈ 0.0279 to 0.279 µM) | 0.01 to 0.1 (≈ 0.0279 to 0.279 µM) | 0.1 to 1 | 0.01 to 0.1 |
| Nc1ncccc1-c1cc(Cc2ccnc(OCc3ccccc3F)c2)no1 [Example 149, 3-(3-((2-((2-fluorobenzyl)oxy)pyridin-4-yl)methyl)isoxazol-5-yl)pyridin-2-amine] | 0.01 to 0.1 (≈ 0.0266 to 0.266 µM) | 0.01 to 0.1 (≈ 0.0266 to 0.266 µM) | 0.1 to 1 (≈ 0.266 to 2.66 µM) | > 1 | 0.01 to 0.1 |
| Nc1ncccc1-c1cc(Cc2ccnc(OCC3CC3)c2)no1 [Example 150, 3-(3-((2-(cyclopropylmethoxy)pyridin-4-yl)methyl)isoxazol-5-yl)pyridin-2-amine] | 0.1 to 1 (≈ 0.31 to 3.1 µM) | 0.1 to 1 (≈ 0.31 to 3.1 µM) | 0.1 to 1 (≈ 0.31 to 3.1 µM) | > 1 | 0.1 to 1 |
| Nc1ncccc1-c1cc(Cc2ccc(OCc3ccnc(F)c3)nc2)no1 [Example 154, 3-(3-((6-((2-fluoropyridin-4-yl)methoxy)pyridin-3-yl)methyl)isoxazol-5-yl)pyridin-2-amine] | 0.01 to 0.1 (≈ 0.0265 to 0.265 µM) | 0.01 to 0.1 (≈ 0.0265 to 0.265 µM) | 0.01 to 0.1 (≈ 0.0265 to 0.265 µM) | 0.1 to 1 | 0.01 to 0.1 |
| Nc1ncccc1-c1cc(Cc2ccc(OCCn3cccn3)nc2)no1 [Example 156, 3-(3-((6-(2-(1H-pyrazol-1-yl)ethoxy)pyridin-3-yl)methyl)isoxazol-5-yl)pyridin-2-amine] | 0.1 to 1 (≈ 0.276 to 2.76 µM) | 0.1 to 1 (≈ 0.276 to 2.76 µM) | > 1 | > 1 | > 1 |
| C#CCOc1ccc(Cc2cc(-c3cccnc3N)on2)cn1 [Example 157, 3-(3-((6-(prop-2-yn-1-yloxy)pyridin-3-yl)methyl)isoxazol-5-yl)pyridin-2-amine] | > 1 | 0.1 to 1 (≈ 0.326 to 3.26 µM) | 0.1 to 1 (≈ 0.326 to 3.26 µM) | 0.1 to 1 | 0.1 to 1 |

The next lines start with results.

| MIC [1] [µg/mL] | MIC [2] [µg/mL] | MIC [5] [µg/mL] | Structure (SMILES) | minimal effective concentration [3] [µg/mL] | minimal effective concentration [4] [µg/mL] |
| --- | --- | --- | --- | --- | --- |
| 0.1 to 1 (≈ 0.276 to 2.76 µM) | 0.1 to 1 (≈ 0.276 to 2.76 µM) | 0.1 to 1 (≈ 0.276 to 2.76 µM) | Nc1ncccc1-c1cc(Cc2ccc(Oc3ccc(F)cc3)nc2)no1 [Example 160, 3-(3-((6-(4-fluorophenoxy)pyridin-3-yl)methyl)isoxazol-5-yl)pyridin-2-amine] | 0.1 to 1 | 0.01 to 0.1 |
| 0.01 to 0.1 (≈ 0.0264 to 0.264 µM) | 0.01 to 0.1 (≈ 0.0264 to 0.264 µM) | 0.01 to 0.1 (≈ 0.0264 to 0.264 µM) | Nc1ncccc1-c1cc(Cc2ccc(Oc3cccc(Cl)c3)nc2)no1 [Example 161, 3-(3-((6-(3-chlorophenoxy)pyridin-3-yl)methyl)isoxazol-5-yl)pyridin-2-amine] | 0.1 to 1 | 0.01 to 0.1 |
| 0.1 to 1 (≈ 0.257 to 2.57 µM) | 0.01 to 0.1 (≈ 0.0257 to 0.257 µM) | 0.01 to 0.1 (≈ 0.0257 to 0.257 µM) | COc1cc(COc2ccc(Cc3cc(-c4cccnc4N)on3)cn2)ccn1 [Example 165, 3-(3-((6-((2-methoxypyridin-4-yl)methoxy)pyridin-3-yl)methyl)isoxazol-5-yl)pyridin-2-amine] | 0.1 to 1 | 0.01 to 0.1 |
| 0.01 to 0.1 (≈ 0.0266 to 0.266 µM) | 0.1 to 1 (≈ 0.266 to 2.66 µM) | 0.01 to 0.1 (≈ 0.0266 to 0.266 µM) | Nc1ncccc1-c1cc(Cc2ccc(COc3ccccc3F)cc2)no1 [Example 168, 3-(3-(4-((2-fluorophenoxy)methyl)benzyl)isoxazol-5-yl)pyridin-2-amine] | 0.1 to 1 | 0.01 to 0.1 |
| 0.01 to 0.1 (≈ 0.0266 to 0.266 µM) | 0.01 to 0.1 (≈ 0.0266 to 0.266 µM) | 0.01 to 0.1 (≈ 0.0266 to 0.266 µM) | Nc1ncccc1-c1cc(Cc2ccc(COc3cccc(F)c3)cc2)no1 [Example 169, 3-(3-(4-((3-fluorophenoxy)methyl)benzyl)isoxazol-5-yl)pyridin-2-amine] | 0.1 to 1 | 0.01 to 0.1 |
| 0.01 to 0.1 (≈ 0.0302 to 0.302 µM) | 0.1 to 1 (≈ 0.302 to 3.02 µM) | 0.01 to 0.1 (≈ 0.0302 to 0.302 µM) | Nc1ncccc1-c1cc(Cc2ccc(Cn3cccn3)cc2)no1 [compound 1, 3-(3-(4-((1H-pyrazol-1-yl)methyl)benzyl)isoxazol-5-yl)pyridin-2-amine] | > 1 | 0.1 to 1 |
| 0.01 to 0.1 (≈ 0.0263 to 0.263 µM) | 0.1 to 1 (≈ 0.263 to 2.63 µM) | > 1 | Nc1ncccc1-c1cc(Cc2cnc(Oc3cccc(F)c3)c(F)c2)no1 [compound 256, 3-(3-((5-fluoro-6-(3-fluorophenoxy)pyridin-3-yl)methyl)isoxazol-5-yl)pyridin-2-amine] |  | 0.1 to 1 |
| > 1 | 0.1 to 1 (≈ 0.275 to 2.75 µM) | > 1 | Nc1ncccc1-c1cc(Cc2ccc(Oc3ncccn3)c(F)c2)no1 [compound 259, 3-(3-(3-fluoro-4-(pyrimidin-2-yloxy)benzyl)isoxazol-5-yl)pyridin-2-amine] |  | 0.01 to 0.1 |
| 0.1 to 1 (≈ 0.254 to 2.54 µM) | 0.1 to 1 (≈ 0.254 to 2.54 µM) | > 1 | Nc1ncccc1-c1cc(Cc2cnc(OCc3ccccc3F)c(F)c2)no1 [compound 260, 3-(3-((5-fluoro-6-((2-fluorobenzyl)oxy)pyridin-3-yl)methyl)isoxazol-5-yl)pyridin-2-amine] |  | 0.1 to 1 |
